Values of other authors, collected in patent US20100041622A1, “Compositions containing aminoalkanes and aminoalkane derivatives” (priority 2008, published 2010).

How the values were obtained:
[1] = tested on: vasoconstrictor activity (blood pressure of pithed animal subject); conditions: average epinephrine equivalent per 1 mg of sulfate derivative
vasoconstrictor activity = conditions: see U.S. Pat. No. 2,350,318
[2] = hydrophilic-lipophilic balance value, known values

CC(C)C(C)CCN (centres unmarked) [1-amino-3,4-dimethylpentane]
Epinephrine equivalent (micrograms (μg)) of 1 mg of the sulfate salt of the aminoalkane [1]: 1.720 µg

CC(C)CC(C)CCN (centres unmarked) [1-amino-3,5-dimethylhexane]
Epinephrine equivalent (micrograms (μg)) of 1 mg of the sulfate salt of the aminoalkane [1]: 0.660 µg

CC(C)CCN [1-amino-3-methyl butane]
Epinephrine equivalent (micrograms (μg)) of 1 mg of the sulfate salt of the aminoalkane [1]: 0.238 µg

CCC(C)CCN (centres unmarked) [1-amino-3-methyl pentane]
Epinephrine equivalent (micrograms (μg)) of 1 mg of the sulfate salt of the aminoalkane [1]: 0.193 µg

CCCCC(C)CCN (centres unmarked) [1-amino-3-methylheptane]
Epinephrine equivalent (micrograms (μg)) of 1 mg of the sulfate salt of the aminoalkane [1]: 1.230 µg

CCCC(C)CCN (centres unmarked) [1-amino-3-methylhexane]
Epinephrine equivalent (micrograms (μg)) of 1 mg of the sulfate salt of the aminoalkane [1]: 0.108 µg

CC(C)CCCN [1-amino-4-methyl pentane]
Epinephrine equivalent (micrograms (μg)) of 1 mg of the sulfate salt of the aminoalkane [1]: 0.530 µg

CCCCCCCN [1-amino-heptane]
Epinephrine equivalent (micrograms (μg)) of 1 mg of the sulfate salt of the aminoalkane [1]: 0.276 µg

CCCCCCN [1-amino-hexane]
Epinephrine equivalent (micrograms (μg)) of 1 mg of the sulfate salt of the aminoalkane [1]: 0.766 µg

CCCCCCCCN [1-amino-octane]
Epinephrine equivalent (micrograms (μg)) of 1 mg of the sulfate salt of the aminoalkane [1]: nil

CCCCCN [1-amino-pentane]
Epinephrine equivalent (micrograms (μg)) of 1 mg of the sulfate salt of the aminoalkane [1]: 0.210 µg

CC(C)CCC(C)C(C)N (centres unmarked) [2-amino-3,6-dimethylheptane]
Epinephrine equivalent (micrograms (μg)) of 1 mg of the sulfate salt of the aminoalkane [1]: 0.910 µg

CCCCCC(O)C(C)N (centres unmarked) [2-amino-3-hydroxy-octane]
Epinephrine equivalent (micrograms (μg)) of 1 mg of the sulfate salt of the aminoalkane [1]: 0.122 µg

CCCCC(C)C(C)N (centres unmarked) [2-amino-3-methylheptane]
Epinephrine equivalent (micrograms (μg)) of 1 mg of the sulfate salt of the aminoalkane [1]: 0.530 µg

CCCC(C)C(C)N (centres unmarked) [2-amino-3-methylhexane]
Epinephrine equivalent (micrograms (μg)) of 1 mg of the sulfate salt of the aminoalkane [1]: 0.858 µg

CC(N)CC(C)(C)C (centres unmarked) [2-amino-4,4-dimethylpentane]
Epinephrine equivalent (micrograms (μg)) of 1 mg of the sulfate salt of the aminoalkane [1]: 0.083 µg

CC(N)CC(C)CC(C)(C)C (centres unmarked) [2-amino-4,6,6-trimethylheptane]
Epinephrine equivalent (micrograms (μg)) of 1 mg of the sulfate salt of the aminoalkane [1]: nil

CC(C)CC(C)CC(C)N (centres unmarked) [2-amino-4,6-dimethylheptane]
Epinephrine equivalent (micrograms (μg)) of 1 mg of the sulfate salt of the aminoalkane [1]: 0.193 µg

CCCCCCC(C)CC(C)N (centres unmarked) [2-amino-4-methyldecane]
Epinephrine equivalent (micrograms (μg)) of 1 mg of the sulfate salt of the aminoalkane [1]: 0.242 µg

CCCC(C)CC(C)N (centres unmarked) [2-amino-4-methylheptane]
Epinephrine equivalent (micrograms (μg)) of 1 mg of the sulfate salt of the aminoalkane [1]: 0.786 µg

CCC(C)CC(C)N (centres unmarked) [2-amino-4-methylhexane]
vasoconstrictor activity compared to ephedrine or amphetamine (vasoconstrictor activity): greater vasoconstrictor activity
Epinephrine equivalent (micrograms (μg)) of 1 mg of the sulfate salt of the aminoalkane [1]: 3.520 µg

CCCCC(C)CC(C)N (centres unmarked) [2-amino-4-methyloctane]
Epinephrine equivalent (micrograms (μg)) of 1 mg of the sulfate salt of the aminoalkane [1]: 0.475 µg

CC(C)CC(C)N (centres unmarked) [2-amino-4-methylpentane]
Epinephrine equivalent (micrograms (μg)) of 1 mg of the sulfate salt of the aminoalkane [1]: 0.840 µg

CCC(CC)CCC(C)N (centres unmarked) [2-amino-5-ethylheptane]
Epinephrine equivalent (micrograms (μg)) of 1 mg of the sulfate salt of the aminoalkane [1]: 0.358 µg

CCC(C)CCC(C)N (centres unmarked) [2-amino-5-methylheptane]
Epinephrine equivalent (micrograms (μg)) of 1 mg of the sulfate salt of the aminoalkane [1]: 0.980 µg

CC(C)CCC(C)N (centres unmarked) [2-amino-5-methylhexane]
Epinephrine equivalent (micrograms (μg)) of 1 mg of the sulfate salt of the aminoalkane [1]: 1.560 µg

C=C(C)CCC(C)N (centres unmarked) [2-amino-5-methylhexene-5]
Epinephrine equivalent (micrograms (μg)) of 1 mg of the sulfate salt of the aminoalkane [1]: 0.504 µg

CC(C)CCCC(C)N (centres unmarked) [2-amino-6-methylheptane]
Epinephrine equivalent (micrograms (μg)) of 1 mg of the sulfate salt of the aminoalkane [1]: 2.620 µg

CC(C)=CCCC(C)N (centres unmarked) [2-amino-6-methylheptene-5]
Epinephrine equivalent (micrograms (μg)) of 1 mg of the sulfate salt of the aminoalkane [1]: 0.391 µg

C=CCCC(C)N (centres unmarked) [2-amino-hexene-5]
Epinephrine equivalent (micrograms (μg)) of 1 mg of the sulfate salt of the aminoalkane [1]: 0.193 µg

CCCCCCC(C)N (centres unmarked) [2-amino-octane]
Epinephrine equivalent (micrograms (μg)) of 1 mg of the sulfate salt of the aminoalkane [1]: 0.510 µg

CCCC(C)N (centres unmarked) [2-amino-pentane]
Epinephrine equivalent (micrograms (μg)) of 1 mg of the sulfate salt of the aminoalkane [1]: 0.395 µg

CCCCCC(C)N (centres unmarked) [2-aminoheptane]
Epinephrine equivalent (micrograms (μg)) of 1 mg of the sulfate salt of the aminoalkane [1]: 3.100 µg

CCCCC(C)N (centres unmarked) [2-aminohexane]
Epinephrine equivalent (micrograms (μg)) of 1 mg of the sulfate salt of the aminoalkane [1]: 0.901 µg

CCC(N)CCC(C)C (centres unmarked) [3-amino-6-methylheptane]
Epinephrine equivalent (micrograms (μg)) of 1 mg of the sulfate salt of the aminoalkane [1]: nil

CCCCCC(N)CC (centres unmarked) [3-amino-octane]
Epinephrine equivalent (micrograms (μg)) of 1 mg of the sulfate salt of the aminoalkane [1]: 0.142 µg

CCCCC(N)CC (centres unmarked) [3-aminoheptane]
Epinephrine equivalent (micrograms (μg)) of 1 mg of the sulfate salt of the aminoalkane [1]: 0.149 µg

CC(C)CC(N)CC(C)C [4-amino-2,6-dimethylheptane]
Epinephrine equivalent (micrograms (μg)) of 1 mg of the sulfate salt of the aminoalkane [1]: nil

CCCC(N)CCC [4-aminoheptane]
Epinephrine equivalent (micrograms (μg)) of 1 mg of the sulfate salt of the aminoalkane [1]: 0.048 µg

CCCCCCCCCCCCCCCCCC(=O)OCC(O)CO (centres unmarked) [Glyceryl Stearate]
HLB [2]: 3.5

Nonoxynol-9
HLB [2]: 12.9

PEG-4 lauryl ether
HLB [2]: 9.7

PEG-100 Stearate
HLB [2]: 18.8

Phosphatidylcholine
HLB [2]: 7.6

Sorbitan Palmitate
HLB [2]: 6.7

Sorbitan monostearate
HLB [2]: 4.7
